Measured values from paper PMC9821308, “The Inhibitory Properties of a Novel, Selective LMTK3 Kinase Inhibitor” (International Journal of Molecular Sciences, 2023).

Assays:
[1] = target: MKNK1 (Homo sapiens, UniProt Q9BUB5); experiment: KINOMEscan active site-directed competition binding at […]; also radioactive filter binding assay at […]
[2] = target: T1, TRKA (Homo sapiens, UniProt P04629); experiment: KINOMEscan active site-directed competition binding at […] ([…]); also radioactive filter binding assay at […]
T1 construct: gene NTRK1

[3] = target: PIM1 (Homo sapiens, UniProt P11309); experiment: KINOMEscan active site-directed competition binding at […]; also radioactive filter binding assay at […]
[4] = target: MKNK2 (Homo sapiens, UniProt Q9HBH9); experiment: as above
[5] = target: PDGFRA (Homo sapiens, UniProt P16234); experiment: as above
[6] = target: T2, LMTK3 (lemur tyrosine kinase 3) (Homo sapiens, UniProt Q96Q04); experiment: microscale thermophoresis; also […] kinase assay on HSP27 (IC50 approximately […]); format: binding
T2 construct: LMTK3cat (LMTK3 kinase domain)
T2 sequence (Q96Q04 133-411 limits assumed): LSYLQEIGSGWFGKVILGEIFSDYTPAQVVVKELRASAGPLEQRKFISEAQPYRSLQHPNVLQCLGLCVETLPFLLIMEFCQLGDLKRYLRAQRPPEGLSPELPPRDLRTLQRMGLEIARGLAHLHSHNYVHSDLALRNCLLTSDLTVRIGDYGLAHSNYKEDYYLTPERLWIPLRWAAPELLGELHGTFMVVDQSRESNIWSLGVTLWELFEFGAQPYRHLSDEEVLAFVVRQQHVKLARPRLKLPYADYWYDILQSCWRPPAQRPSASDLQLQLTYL

Kd [6]: 1870 ± 200 nM
Structure (SMILES): Clc1ccc(-c2cnc3sc(NCc4cccnc4)nn23)cc1 [C36]
KINOMEscan active site-directed competition binding at 5 μM; also radioactive fi [1]: overlap of kinases targeted by C36 that have been identified via both assays (namely PIM1, TRKA, PDGFRA, MKNK1, MKNK2) | KINOMEscan active site-directed competition binding at 5 μM (>90%); also radioac [2]: overlap of kinases targeted by C36 that have been identified via both assays (namely PIM1, TRKA, PDGFRA, MKNK1, MKNK2) | KINOMEscan active site-directed competition binding at 5 μM; also radioactive fi [3]: overlap of kinases targeted by C36 that have been identified via both assays (namely PIM1, TRKA, PDGFRA, MKNK1, MKNK2) | KINOMEscan active site-directed competition binding at 5 μM; also radioactive fi [4]: overlap of kinases targeted by C36 that have been identified via both assays (namely PIM1, TRKA, PDGFRA, MKNK1, MKNK2) | KINOMEscan active site-directed competition binding at 5 μM; also radioactive fi [5]: overlap of kinases targeted by C36 that have been identified via both assays (namely PIM1, TRKA, PDGFRA, MKNK1, MKNK2)
